Reference: patent US20240209028A1, “CNP COMPOUNDS” (priority 2022, published 2024)
Starred links: 1 amine or outer side, 2 acyl side, 3 side chain; linkers in the order of their positions; H or OH if unused. Positions of bridges follow the written chain, without caps; N, C: chain ends. Residues, ends and D or L forms follow the SMILES beside them. *: point of attachment. C18 diacid = O=C(O)CCCCCCCCCCCCCCCCC(=O)*; γGlu = O=C(O)[C@H](CCC(=O)[*:2])N[*:1]; AEEA = NCCOCCOCC(=O)O

How the values were obtained:
[1] = Local tolerance of CNP compounds in rats (s.c. injection, histopathology); format: in vivo, Sprague Dawley rat; details: rat, s.c. 350 μl, about 1000 nmol/ml, 5 days post injection
Protocol: The purpose of this study was to evaluate the local tissue reaction to subcutaneous injection of CNP compounds in rats.
Procedure: The CNP compounds were formulated according to the principles described in General Methods of Preparation-Method G. Each Sprague Dawley rat (male, 10-11 weeks of age at arrival, Janvier, France) was dosed s.c. with 250 or 350 uL of the same compound (formulation concentration of 1000 nmol/mL) 120 h prior to tissue collection resulting in a total of two injections for each animal (Table 15). Injection site (flank or neck) was alternated across animals within each group and time point.
Animals had access to tap water and food (Altromin 1324) ad libitum. Group size was n=3 for vehicles and positive control, and n=4 for test compounds. Vehicles and compounds were formulated in either 5 mM sodium acetate, 250 mM glycerol, pH 4.0 or 8 mM sodium phosphate, 250 mM glycerol, pH 7.4 as shown in Table 16.
The animals were anesthetized with isoflurane. Via an electric shaving machine, a squared area of fur (2 cm×2 cm) was removed either from the rats' neck or flank area). For dosing, a new injection needle (25G canula, 1 ml syringe) was placed in the middle of the square border closest to the animal's head and the needle was inserted into the skin from the border towards the center of the square. […] On the day of tissue collection, the rats were deeply anaesthetized with isoflurane and euthanized by exsanguination. The injection sites were inspected and scored with regards to pathological lesions. The injection sites were evaluated, and any changes were noted (location, colour, shape and size), and sampled for histology preparation.
The injection sites were removed and fixed in 4% phosphate buffered neutral formaldehyde in sealed plastic containers.
Each injection site was subsequently cut into three sections 0.8 cm, 1.0 cm and 1.2 cm from the square border where the injection needle was placed, and, respectively, these sections represented the injection sites and the adjacent tissue. The tissue was processed, embedded in paraffin and cut in 2-4 μm thin sections, stained with the haematoxylin and eosin (H&E), and evaluated microscopically with a light microscope. Histopathological changes were graded on a 5-level scale (Minimal (Min), Mild (Mil), Moderate (Mod), Marked (Mar) and Severe (Sev)).

[2] = PK after i.v. and s.c. administration to domestic LYD pig; details: female, pig, in vivo
Protocol: (§1) The purpose of this study was to investigate pharmacokinetic and pharmacodynamic properties after intravenous (i.v.) and subcutaneous (s.c.) administration to Gottingen Minipig and domestic LYD pig, and to estimate bioavailability after s.c. dosing. Quantitative plasma analysis of CNP and cGMP levels were performed as described in
(§2) Animals and dosing: The pharmacokinetic and pharmacodynamic studies in Gottingen Minipig or domestic LYD pig were conducted at CRO Minerva Imaging or Novo Nordisk A/S, respectively. CNP compounds were dosed to normal female 1) Gottingen minipigs 6-12 months of age with an average weight of 22 kg or 2) domestic LYD pigs 4-5 months of age with and average weight of 80 kg. At least one week prior to dosing, permanent central venous catheters were implanted for blood sampling and intravenous (i.v.) dosing. For subcutaneous (s.c.) dosing, the pigs were ultrasound scanned and the optimal injection area laterally on the neck marked by a permanent tattoo. An insulin pen (NovoPen Echo or NovoPen 4) and insulin needle (NovoFine 32G/4 mm or NovoTwist 32G/5 mm) were used for accurate deposition of the CNP formulations in the subcutaneous fat tissue with the needle perpendicular to the skin.
(§3) CNP compounds were formulated according to the principles in General Methods of Preparation—Method G and were either A) 8 mM sodium phosphate, 250 mM glycerol, pH 6.5, B) 5 mM sodium acetate, 250 mM glycerol, pH 4.0, C) 5 mM sodium acetate, 240 mM propylene glycol, pH=4.0, D) 8 mM sodium phosphate, 250 mM glycerol, pH 7.5 or E) 20 mM sodium phosphate, 223 mM propylene glycol, pH 6.0.
(§4) Intravenously, the CNP compounds were dosed at 30-60 nmol/kg to Minipig and 15-43 nmol/kg to domestic pig using formulations A-E. Subcutaneously, the CNP compounds were dosed at 55-62 nmol/kg to Minipig and 20-30 nmol/kg to domestic pig using formulations A-D.
(§5) Sampling: Blood samples of approximately 1 mL were collected pre dose and up to 14 days post dose into EDTA-coated tubes (8 mM) for cGMP and CNP compound analysis by LC-MS. In few instances, cGMP was only analysed up to 48 hours post dose after intravenous dosing in domestic LYD pig. The blood samples were kept on wet ice for maximum 30 minutes until centrifugation for 10 minutes at 4° C. and minimum 1500G, and the plasma samples were stored at −20° C. until analysis.
(§6) Plasma concentration-time profiles were analyzed by non-compartmental PK analysis using Phoenix WinNonlin 8.1, Pharsight Inc., Mountain View, CA, USA. Calculation of the area under the plasma concentration-time curve (AUC) was based on the “linear up log down” method, and uniform weighting was used for estimation of the terminal rate constant (λz). S.c. bioavailability (F) was calculated as the dose-normalized AUC (AUC/dose) after s.c. administration divided by the AUC/dose after i.v. administration. […]

[3] = PK after i.v. and s.c. administration to Göttingen minipig; details: female, Göttingen, minipig, in vivo
Protocol: as §1, §2, §3, §4, §5, §6

| Compound | Number of injections by severity of necrosis: Mil. [1] | Number of injections by severity of necrosis: NAD (No Abnormalities Detected) [1] | bioavailability ([2]; LYD (domestic), sc) | clearance ([2]; LYD, iv) | half-life ([2]; LYD, iv) | half-life ([2]; LYD, sc) | clearance ([3]; iv) | half-life ([3]; iv) | bioavailability ([3]; sc) | half-life ([3]; sc) |
| --- | --- | --- | --- | --- | --- | --- | --- | --- | --- | --- |
| CC[C@H](C)[C@@H]1NC(=O)[C@H](CCCNC(=N)N)NC(=O)[C@H](CC(=O)O)NC(=O)[C@H](CC(C)C)NC(=O)[C@@H]2CCCN2C(=O)[C@H](CC(C)C)NC(=O)CNC(=O)[C@H](Cc2ccccc2)NC(=O)[C@@H](NC(=O)CNC(=O)[C@H](CCCCN)NC(=O)[C@H](CO)NC(=O)[C@@H](NC(=O)CNC(=O)[C@@H](NC(=O)[C@H](Cc2c[nH]cn2)NC(=O)[C@H](CCC(N)=O)NC(=O)[C@H](C)NC(=O)CNC(=O)[C@H](Cc2c[nH]cn2)NC(=O)[C@H](Cc2ccc(O)cc2)NC(=O)[C@H](CCCCN)NC(=O)[C@H](CCCNC(=N)N)NC(=O)[C@H](C)NC(=O)COCCOCCNC(=O)COCCOCCNC(=O)CC[C@H](NC(=O)CC[C@H](NC(=O)CC[C@H](NC(=O)CCCCCCCCCCCCCCCCC(=O)O)C(=O)O)C(=O)O)C(=O)O)[C@@H](C)O)C(C)C)CSSC[C@@H](C(=O)O)NC(=O)CNC(=O)[C@H](CC(C)C)NC(=O)CNC(=O)[C@H](CO)NC(=O)[C@H](CC(C)C)NC(=O)[C@H](CO)NC(=O)CNC1=O [Compound 1420] ({C18 diacid-γGlu-γGlu-γGlu-AEEA-AEEA}-ARKYHGAQHTGVSKGCFGLPLDRIGSLSGLGC-OH; disulfide 16-32) | 1 | 3 |  |  |  |  |  |  |  |  |
| CC[C@H](C)[C@@H]1NC(=O)[C@H](CCCNC(=N)N)NC(=O)[C@H](CCC(=O)O)NC(=O)[C@H](CC(C)C)NC(=O)[C@H](CCCCN)NC(=O)[C@H](CC(C)C)NC(=O)CNC(=O)[C@H](Cc2ccccc2)NC(=O)[C@@H](NC(=O)CNC(=O)[C@H](CCCCN)NC(=O)[C@H](CO)NC(=O)[C@H](CC(C)C)NC(=O)CNC(=O)[C@H](CCCCN)NC(=O)[C@H](CCCCN)NC(=O)[C@H](CCC(N)=O)NC(=O)[C@H](C)NC(=O)CNC(=O)[C@H](CCCCN)NC(=O)[C@H](Cc2ccc(O)cc2)NC(=O)[C@H](CCCCN)NC(=O)[C@H](CCCNC(=N)N)NC(=O)[C@H](C)NC(=O)COCCOCCNC(=O)COCCOCCNC(=O)CC[C@H](NC(=O)CCCCCCCCCCCCCCCCC(=O)O)C(=O)O)CSSC[C@@H](C(=O)O)NC(=O)CNC(=O)[C@H](CC(C)C)NC(=O)CNC(=O)[C@H](CO)NC(=O)[C@H](CC(C)C)NC(=O)[C@H](CO)NC(=O)CNC1=O [Compound 0776] ({C18 diacid-γGlu-AEEA-AEEA}-ARKYKGAQKKGLSKGCFGLKLERIGSLSGLGC-OH; disulfide 16-32) |  |  | 7% | 1.34 mL/h/kg | 1740 min | 2460 min | 20.2 mL/day/kg | 2.5 days | 13% | 2.33 days |
